Source: EP2311818B1, “Combination of a 5-phenylthiazole compound as PI3 kinase inhibitor with an antiinflammatory, bronchodilatory or antihistamine drug” (Novartis AG, priority 2003, dated 2003)

The molecules below were run against T1, recombinant GST-p110y (Homo sapiens, UniProt P48736) (assay: in vitro PI3Kγ kinase assay (Scintillation Proximity Assay, transfer of terminal phosphate of ATP to phosphatidylinositol)). Conditions: 12.5 µM ATP, 15 µg/ml phosphatidylinositol, room temperature, 60 minutes.
T1 construct: Residues 38-1102 of human P13Ky are subcloned into the BamH1 and EcoR1 sites; made in house; host or cells: Sf9 (Spodoptera frugiperda) insect cells, baculovirus
Assay type: biochemical
Description: To express the recombinant protein, Sf9 (Spodoptera frugiperda 9) insect cells are routinely maintained at densities between 3 X 10^5 and 3 X 10^6 cells/ml in serum containing TNMFH medium (Sigma). Sf9 cells, at a density of 2 X 10^6 are infected with human GST-P13KγΔ34 baculovirus at a multiplicity of infection (m.o.i.) of 1 for 72 hours. The infected cells are harvested by centrifugation at 1400 g for 4 minutes at 4° C and the cell pellets are frozen at -80° C. […] The unbound flow through sample is collected by centrifugation at 1000g for 5 minutes at 4° C using a DENLEY™ centrifuge. The 1 ml GST resin containing bound material is transferred to a 15 ml FALCON™ centrifuge tube for subsequent washing and elution steps. Firstly a series of 3 cycles of washings (mixing by gentle inversion) is performed with 15 ml ice cold wash Buffer A (50 mM Tris-HCl pH 7.5, 1 % Triton X-100, 2 mM DTT) interspersed with centrifugation at 1000g for 5 minutes at 4° C. A final single wash step is performed with 15 ml ice cold wash Buffer B (50mM Tris-HCl pH 7.5, 2 mM DTT) and then centrifuged at 1000g for 5 minutes at 4° C. The washed GST resin is finally eluted with 4 cycles of 1 ml ice cold elution buffer (50 mM Tris-HCl pH 7.5, 10 mM reduced glutathione, 2 mM DTT, 150 mM NaCl, 1 mM NaF, 50% ethylene glycol and protease inhibitors) interspersed with centrifugation at 1000g for 5 minutes at 4° C.. Samples are aliquoted and stored at -20° C.
An in vitro kinase assay was established that measures the transfer of the terminal phosphate of adenosine triphosphate to phosphatidylinositol. The kinase reaction is performed in a white 96 well microtitre plate as a Scintillation Proximity Assay. […] The reaction is started by the addition of 20 µl of enzyme mix (40 mM Tris, 200 mM NaCl, 2 mM EGTA containing recombinant GST-p110y).

T1 sequence (P48736 38-1102): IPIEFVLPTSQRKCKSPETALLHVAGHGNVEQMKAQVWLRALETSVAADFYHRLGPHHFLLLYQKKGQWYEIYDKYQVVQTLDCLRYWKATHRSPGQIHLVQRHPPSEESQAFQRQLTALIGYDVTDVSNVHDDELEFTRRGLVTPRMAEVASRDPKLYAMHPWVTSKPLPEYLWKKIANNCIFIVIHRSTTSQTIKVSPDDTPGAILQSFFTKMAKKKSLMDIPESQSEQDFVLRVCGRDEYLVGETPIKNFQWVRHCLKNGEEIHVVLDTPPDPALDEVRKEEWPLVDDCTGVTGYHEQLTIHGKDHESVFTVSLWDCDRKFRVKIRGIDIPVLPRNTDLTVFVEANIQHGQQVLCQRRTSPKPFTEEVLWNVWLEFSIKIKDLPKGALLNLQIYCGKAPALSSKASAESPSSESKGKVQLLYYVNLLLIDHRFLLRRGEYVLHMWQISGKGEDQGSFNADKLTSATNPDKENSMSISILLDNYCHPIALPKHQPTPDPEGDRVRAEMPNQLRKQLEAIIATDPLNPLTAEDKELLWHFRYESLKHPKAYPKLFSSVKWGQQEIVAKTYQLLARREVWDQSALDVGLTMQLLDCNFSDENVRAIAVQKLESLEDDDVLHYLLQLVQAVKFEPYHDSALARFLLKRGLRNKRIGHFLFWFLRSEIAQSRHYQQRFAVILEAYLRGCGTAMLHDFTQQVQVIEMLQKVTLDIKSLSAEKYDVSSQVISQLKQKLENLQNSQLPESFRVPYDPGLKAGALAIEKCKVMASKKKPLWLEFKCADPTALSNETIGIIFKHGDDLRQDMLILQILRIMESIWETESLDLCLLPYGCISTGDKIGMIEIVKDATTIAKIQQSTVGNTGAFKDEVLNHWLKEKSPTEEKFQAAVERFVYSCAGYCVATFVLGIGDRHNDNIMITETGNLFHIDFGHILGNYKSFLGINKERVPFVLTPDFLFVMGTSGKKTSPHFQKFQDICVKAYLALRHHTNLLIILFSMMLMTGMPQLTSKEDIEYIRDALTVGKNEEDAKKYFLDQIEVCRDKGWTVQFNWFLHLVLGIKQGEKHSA

Row | IC50 | SMILES
1 | 5 nM | Cc1nc(NC(N)=O)sc1-c1ccc(Cl)c(S(C)(=O)=O)c1 [Example 138, [5-(4-chloro-3-methanesulfonyl-phenyl)-4-methyl-thiazol-2-yl]-urea]
2 | 18 nM | CC(=O)Nc1nc(C)c(-c2ccc(Cl)c(S(C)(=O)=O)c2)s1 [Example 48, N-[5-(4-Chloro-3-methanesulfonyl-phenyl)-4-methyl-thiazol-2-yl]-acetamide]
3 | 40 nM | CCc1cnc(CCNC(=O)Nc2nc(C)c(-c3ccc(S(C)(=O)=O)c(F)c3)s2)o1 [Example 178]
4 | 9 nM | CC(=O)Nc1nc(C)c(-c2cc(Br)c(S(N)(=O)=O)c(Br)c2)s1 [Example 8, N-[5-(3.5-Dibromo-4-sulfamoyl-phenyl)-4-methyl-thiazol-2-yl]-acetamide]
5 | 13 nM | CC(=O)Nc1nc(C)c(-c2ccc(S(C)(=O)=O)c(-n3ccnc3)c2)s1 [Example 80, N-[5-(3-Imidazol-1-yl-4-methanesulfonyl-phenyl)-4-methyl-thiazol-2-yl]-acetamide]
6 | 19 nM | CCOC(=O)CCNC(=O)Nc1nc(C)c(-c2ccc(S(C)(=O)=O)c(F)c2)s1 [Example 165, 3-{3-[5-(3-Fluoro-4-methanesulfonyl-phenyl)-4-met4l-thiazol-2-yl]-ureido}-propionic acid ethyl ester]
